In this assay the target is Ephrin type-A receptor 2 (Homo sapiens, UniProt P29317). The assay can be described thus: In Vitro Biochemical Kinase Assay. An excerpt: In vitro biochemical kinase assays were done using recombinant human EPHA2. compounds were subjected to in vitro biochemical kinase assays done using recombinant human ephrin type-A receptor 2 (EPHA2) (expressed in insect cells) in a Z′-LYTE FRET-based kinase assay.
Ephrin type-A receptor 2, sequence (P29317 whole entry): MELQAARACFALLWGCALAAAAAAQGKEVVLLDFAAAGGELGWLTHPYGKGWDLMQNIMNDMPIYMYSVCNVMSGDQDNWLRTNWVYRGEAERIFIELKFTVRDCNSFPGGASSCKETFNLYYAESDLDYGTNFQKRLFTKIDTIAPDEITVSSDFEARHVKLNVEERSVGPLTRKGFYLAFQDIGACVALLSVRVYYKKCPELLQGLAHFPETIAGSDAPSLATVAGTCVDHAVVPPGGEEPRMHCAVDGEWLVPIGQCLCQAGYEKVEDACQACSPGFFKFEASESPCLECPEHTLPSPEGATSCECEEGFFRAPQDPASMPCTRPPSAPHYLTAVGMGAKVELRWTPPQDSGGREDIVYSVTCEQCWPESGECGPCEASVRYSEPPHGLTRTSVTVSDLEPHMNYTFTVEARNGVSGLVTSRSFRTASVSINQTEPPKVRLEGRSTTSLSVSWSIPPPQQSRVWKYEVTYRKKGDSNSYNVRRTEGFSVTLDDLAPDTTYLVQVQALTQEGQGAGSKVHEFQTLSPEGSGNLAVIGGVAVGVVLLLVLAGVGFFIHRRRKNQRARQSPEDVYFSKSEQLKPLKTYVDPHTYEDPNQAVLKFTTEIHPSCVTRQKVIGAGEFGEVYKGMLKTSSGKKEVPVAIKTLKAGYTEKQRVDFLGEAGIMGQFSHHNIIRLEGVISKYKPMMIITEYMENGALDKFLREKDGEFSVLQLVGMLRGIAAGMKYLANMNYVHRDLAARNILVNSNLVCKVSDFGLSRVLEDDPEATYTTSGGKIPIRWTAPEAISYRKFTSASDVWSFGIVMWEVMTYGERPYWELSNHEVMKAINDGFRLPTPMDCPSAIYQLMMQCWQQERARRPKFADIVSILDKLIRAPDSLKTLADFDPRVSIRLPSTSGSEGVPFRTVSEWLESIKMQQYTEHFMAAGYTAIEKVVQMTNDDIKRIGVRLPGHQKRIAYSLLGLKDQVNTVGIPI

As for `CCN1CCN(Cc2ccc(NC(=O)c3cncc(NC(=O)c4cncc(-c5cccs5)c4)c3)cc2C(F)(F)F)CC1` [US20250195508, Name TL5-139], the IC50 (in general, the concentration needed to halve the response being measured) is over 10 µM.
`CCN1CCN(Cc2ccc(NC(=O)c3cc(NC(=O)c4cncc(-c5cccs5)c4)cc(OC)c3)cc2C(F)(F)F)CC1` [MLS000911581]: the IC50 is over 10 µM.
As to `CCN1CCN(Cc2ccc(NC(=O)c3ccnc(NC(=O)c4cncc(-c5cccs5)c4)c3)cc2C(F)(F)F)CC1` [US20250195508, Name TL5-145], the IC50 was over 10 µM.

Source of the values: BindingDB's records for patent US20250195508 (University of Central Florida Research Foundation, 2025).
